{
  "source": "patent US20230143731A1",
  "about": "“NANOMATERIALS FOR TARGETED TREATMENT OF PULMONARY TISSUE” (The University of North Carolina at Chapel Hill, priority 2020, published 2023)",
  "origin": "cited, not measured here",
  "system": "ACE",
  "conditions": "with and without the C-terminal serine",
  "data": [
    {"substance": "TPTQQS", "values": [
      {"measurement": "ACE inhibition", "result": 73, "unit": "%"}
    ]},
    {"substance": "TPTQQ [TPTQQ peptide]", "values": [
      {"measurement": "ACE inhibition", "result": 26, "unit": "%"}
    ]}
  ]
}
